Data set [1] deals with 22 human preclinical TNBC cell line models. As to the kind of experiment: WST assay in TNBC cell lines. The data set is classed as cell-based. The following applies: 22 TNBC cell lines, read-out: IC50, WST assays. An excerpt: (§1) FIGS. 34A-C: Dose response curve of ERX-41 in multiple TNBC. cell lines using WST-1 assays (FIG. 34A) and CellTiter-Glo assays (FIG. 34B). […] Quantification of the number of dead cells over time seen with live cell imaging in MDAMB-231 and HMEC cells is shown.
(§2) To evaluate the generalizability of the inventors' findings, they evaluated ERX-41 in a large number of TNBC and ERa-positive cell lines.

Data set [2] has as its system MDA-MB-231 TNBC xenografts. The experiment in a line: MDA-MB-231 TNBC xenografts. The data set is classed as in vivo, mice. The following applies: oral 10 mg/kg/day. The procedure:
FIGS. 5A-5C show the effect of TK41 on triple negative breast cancer xenograft tumors. MDA-MB-231 (TNBC; n=10) xenografts were established in nude mice and treated with either vehicle (circle markers) or 10 mg/kg/day TK41 (square markers) administered as an oral gavage in Captisol®. Comparison of mice body weights is shown in bar graphs (FIG. 5A). Photographs of individual tumors at necropsy supports the effect of TK41 on TNBC. *p<0.05; **** p<0.001.
(§3) FIGS. 35A-P: ERX-41 is potent against TNBC in vivo. (FIG. 35A) Following establishment of subcutaneous MDA-MB-231 xenograft tumors (200 mm^3), 10 mg/kg single dose ERX-41 was administered either by oral or intraperitoneal route. The tumor was harvested 0, 0, 5, 1, 5, 3, 6 and 24 h after drug administration and the drug levels assayed by LC-MS/MS and graphed. (FIGS. 35B-E) Following establishment of MDA-MB-231 xenografts in mammary fat pad in vivo (100 mm^3 size), daily administration of 10 mg/kg ERX-41 or vehicle control (N=8 each group) was initiated. Tumor volumes were measured using digital calipers and graphed (FIG. 35B). Tumor weights (FIG. 35C), body weights (FIG. 35D) and extirpated tumors (FIG. 35E) at end of study are also shown. […] Tumor volumes were measured using digital calipers and graphed (FIG. 35F) along with tumor weights (FIG. 35G) and body weights (FIG. 35H). […]

The subject of data set [3] is normal human mammary epithelial cells (HMEC). The experiment in a line: WST, MTT or CellTiter-Glo assays in HMEC. The data set is classed as cell-based. To be noted: at >1 μM.
Description: as §1, §2
(In ATP-based viability assays light output follows the ATP content of the culture.)

The subject of data set [4] is TNBC PDX tumors. The experiment in a line: TNBC patient derived xenografts (PDX). To be noted: 10 mg/kg/day oral. The data set is classed as in vivo, mice. The procedure: FIGS. 7A-7C show effect of TK41 in triple negative breast cancer in patient derived xenografts. TNBC patient derived xenografts (n=6) were established in nude mice and treated with vehicle (circle markers) or 10 mg/kg/day/oral ERX-41 (i.e., TK41; square markers).
FIGS. 32A-C show established breast PDX tumors treated either with vehicle (circles) or ERX-41 (squares). Tumor volume is graphed (left), distribution of tumor weights at necropsy (middle panel). *p<0.05; […].
as §3
(In general: In xenograft studies the graft and the host belong to different species.)

The test system of data set [5] is TNBC cells with LIPA KO. As to the kind of experiment: Response of LIPA knockout TNBC cells, CellTiter-Glo. It counts as cell-based. The following applies: LIPA KO clones. An excerpt:
FIGS. 37A-J: The molecular target of ERX-41 in TNBC is LIPA. […] (FIG. 37B) Knockout clones of LIPA, ACACA, TMEM208, SOAT1 and ARID1A were generated in MDA-MB-231 cells and evaluated for response to ERX-41 using doseresponse curves using CellTiter-Glo assays in vitro. (FIGS. 37C-D) Effect of knockout of LIPA in SUM-159 (FIG. 37C) and MDA-MB436 (FIG. 37D) on dose response curve to ERX-41 using CellTiter-Glo assays in vitro. (FIGS. 37E-F) Dose response curves of SUM-159 parental cells and clones with LIPA KO to thapsigargin (FIG. 37E) and paclitaxel (FIG. 37F). (FIGS. 37G-H) Live cell imaging studies with SYTOX Green to examine ability of 1 μM ERX-41 to induce cell death in parental SUM-159 and SUM-159 clones with LIPA KO, with quantitation (FIG. 37G) and time-lapsed photomicrographs at 0 h and 30 h ((FIG. 37H). (FIGS. 37I-J) SCID mice were implanted with either parental SUM-159 or SUM-159 clones with LIPA KO (n=6, each group) and tumors were allowed to establish (150 mm^3). Following daily intraperitoneal administration of 10 mg/kg ERX-41, tumor sizes were measured and graphed (FIG. 37I), along with mice body weights (FIG. 37J). *p<0.05. **p<0.01; ***p<0.001.
The molecular target of ERX-41 in TNBC is LIPA. […] Knockout clones of LIPA, SLC5A3, SMAP2, TMEM208, SOAT1 and ARID1A were generated in multiple TNBC cells and evaluated for response to ERX-41.

Molecules are shown by their SMILES. Entries after “also recorded” stand apart in the source; their conditions may differ.

For the compound `CC(C)COc1cc(C(=O)Nc2ccc(C(=O)N[C@H]3CC[C@H](C)CC3)cc2OCC(C)C)ccc1NC(=O)c1ccc([N+](=O)[O-])c(OCCO)c1` [TK41], the concentration for half-maximal inhibition (IC50) (as a rule, the concentration at which inhibition is half-maximal) in data set [1] is less than 500 nM. In addition, in data set [2], the “growth of MDA-MB-231 xenografts” value is on record as “significantly decreased the growth”. In addition, the mouse body weights entry in data set [2] is “no alterations in mouse body weights”. Moreover, the “effect against HMEC” value in data set [3] is “did not have significant effect”. Moreover, the “growth of TNBC PDX tumors” value is listed as “significantly decreased the growth” in data set [4] and “significantly decreased the rates of growth; also recorded: has activity against TNBC PDX tumors” in data set [4] (listed as ERX-41). The “cytotoxic response after knockout of LIPA” value in data set [5] is on record as “abrogate the cytotoxic response”.
